The source of these data is ChEMBL document CHEMBL3046058, “Insecticidal activity of huperzine A from the New Zealand clubmoss, Lycopodium varium” (2002).

Converted amounts (≈) assume the structure as drawn.

What all share (format): functional
Test [1] relates to Eurhopalus australis. As to the kind of experiment: Antifeedant activity against larvae of Anthrenocerus australis assessed as amount of food intake at 63 ppm after 14 days (reference value: 55.5 mg).
The test system of test [2] is Tineola bisselliella. In words: Insecticidal activity against larvae of Tineola bisselliella assessed as survival at 430 to 4500 ppm after 14 days.
Test [3] relates to Eurhopalus australis. In words: Insecticidal activity against larvae of Anthrenocerus australis assessed as survival at 125 to 4000 ppm after 14 days.
Test [4] concerns Eurhopalus australis. As to the kind of experiment: Insecticidal activity against larvae of Anthrenocerus australis assessed as survival after 14 days. As to conditions: 336 h, read-out: LD50 (the source's name).
Test [5] has as its system Lucilia cuprina. As to the kind of experiment: Insecticidal activity against newly hatched larvae of Lucilia cuprina assessed as survival at 450 to 5130 ppm after 24 hr.
The subject of test [6] is Tineola bisselliella. As to the kind of experiment: Insecticidal activity against larvae of Tineola bisselliella assessed as survival after 14 days. As to conditions: 336 h, read-out: LD50 (the source's name).
For test [7], the system named is Lucilia cuprina. As to the kind of experiment: Insecticidal activity against newly hatched larvae of Lucilia cuprina assessed as mortality after 24 hr. The conditions noted are these: read-out: LD50 (the source's name).

On to `C/C=C1\[C@H]2C=C(C)C[C@]1(N)c1ccc(=O)[nH]c1C2` [HUPERZINE A], for which the Activity in the test with Eurhopalus australis [1] was found to be 1.5 mg; with Tineola bisselliella [2] it was 3%; in the test with Eurhopalus australis [3], 3%; with Lucilia cuprina [5], 8%. Besides, the values for the LC50 in the test on Eurhopalus australis [4], in the test on Tineola bisselliella [6] and with Lucilia cuprina [7] were 110 µg/mL (≈ 454 µM), 630 µg/mL (≈ 2600 µM) and 2380 µg/mL (≈ 9820 µM), respectively.
